Here are results for 18 molecules from patent US20130302282A1, “Inhibitors of Hepatitis C Virus” (priority 2010, published 2013).

Like-named read-outs stand apart in the source and are kept apart here.

The target in test [1] is T1, HCV NS5B S365A mutant (Hepatitis C virus genotype 1b, UniProt Q9WMX2, S2784A).
T1 construct: HCV NS5B C316Y or S365A mutant as indicated; expressed in transfected cells
The test can be described thus: Activity against HCV NS5B S365A mutant. In kind it is cell-based. Conditions: for Inhibition of HCV NS5B S3865A mutant: class symbol. As to the method: (§1) The biological activity against HCV 1b, 1a, or 2a is indicated as being *, **, ***, or ****, which corresponds to EC50 ranges of EC50>1000 nM, 100 nM<EC50≦1000 nM, 10 nM<EC50≦100 nM, or EC50≦10 nM, respectively. The biological activity against HCV NS5B C316Y or S365A mutant is indicated as being […], which corresponds to EC50 ranges of EC50>1000 nM, 200 nM<EC50≦1000 nM, […], respectively.

Test [2] relates to 1b_Huh-Luc/Neo-ET cell line (bicistronic genotype 1b replicon in Huh 7 cells). The test can be described thus: HCV 1b replicon assay, luciferase readout. In kind it is cell-based, HCV genotype 1b. Conditions: Hepatitis C virus. The essentials:
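Huh 7 cells persistently carrying a bicistronic genotype 1b luciferase replicon, treated with compound in triplicate the day after plating and incubated 72 h. Luciferase activity measured by Bright-Glo and expressed as percent of untreated control; EC50 from four-parameter fit, repeated several times.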

Test [3] addresses T2, HCV NS5B C316Y mutant (Hepatitis C virus genotype 1b, UniProt Q9WMX2, C2735Y).
T2 construct: HCV NS5B C316Y or S365A mutant as indicated; expressed in transfected cells
The test can be described thus: Activity against HCV NS5B C316Y mutant. In kind it is cell-based. Conditions: for Inhibition of HCV N55B C316Y mutant: class symbol. As for the experimental part:
as §1

Test [4] deals with HCV 1a. The test can be described thus: HCV 1a replicon assay. In kind it is cell-based. As to conditions: Hepatitis C virus; class symbol; cell marked (HCV genotype 1a replicon); read-out: Inhibition of HCV genotype 1a replicon. As to the method: Compounds of the invention can inhibit multiple genotypes of HCV selected but not limited to 1a, 1h, 2a, 3a, and 4a. The EC50s are measured in the corresponding replicon assays that are similar to HCV 1b replicon assay as described above.
as §1
(In general: Replicon systems follow genome replication, usually without infectious particles.)

Setting [5] is: Huh-7, 1b_Huh-Luc/Neo-ET cell line, read-out: EC50, half-maximal inhibition of HCV 1b replication.
Where [6] appears, read: Huh-7, numeric value, HCV genotype 1b replicon, read-out: Inhibition of HCV genotype 1b replicon (EC50).
The mark [7] stands for this setting: Huh-7, class symbol, HCV genotype 1b replicon, read-out: Inhibition of HCV genotype 1b replicon.

T2 sequence (Q9WMX2 2420-3010 C2735Y): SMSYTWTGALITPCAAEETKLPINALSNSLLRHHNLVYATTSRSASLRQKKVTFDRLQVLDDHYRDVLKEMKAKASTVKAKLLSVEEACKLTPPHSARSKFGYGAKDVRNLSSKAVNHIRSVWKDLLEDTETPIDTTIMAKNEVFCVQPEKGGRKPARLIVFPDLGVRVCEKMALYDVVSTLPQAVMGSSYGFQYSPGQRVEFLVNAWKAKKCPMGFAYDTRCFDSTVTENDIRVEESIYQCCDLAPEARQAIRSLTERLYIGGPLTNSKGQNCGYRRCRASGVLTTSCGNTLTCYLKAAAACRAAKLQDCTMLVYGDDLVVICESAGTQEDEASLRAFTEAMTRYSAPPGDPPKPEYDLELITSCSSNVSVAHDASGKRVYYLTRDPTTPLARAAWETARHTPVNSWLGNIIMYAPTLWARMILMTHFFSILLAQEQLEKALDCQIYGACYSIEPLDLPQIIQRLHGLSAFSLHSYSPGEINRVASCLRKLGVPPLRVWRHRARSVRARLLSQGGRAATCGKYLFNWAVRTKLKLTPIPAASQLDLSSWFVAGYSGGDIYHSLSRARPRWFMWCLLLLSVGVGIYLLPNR
T1 sequence (Q9WMX2 2420-3010 S2784A): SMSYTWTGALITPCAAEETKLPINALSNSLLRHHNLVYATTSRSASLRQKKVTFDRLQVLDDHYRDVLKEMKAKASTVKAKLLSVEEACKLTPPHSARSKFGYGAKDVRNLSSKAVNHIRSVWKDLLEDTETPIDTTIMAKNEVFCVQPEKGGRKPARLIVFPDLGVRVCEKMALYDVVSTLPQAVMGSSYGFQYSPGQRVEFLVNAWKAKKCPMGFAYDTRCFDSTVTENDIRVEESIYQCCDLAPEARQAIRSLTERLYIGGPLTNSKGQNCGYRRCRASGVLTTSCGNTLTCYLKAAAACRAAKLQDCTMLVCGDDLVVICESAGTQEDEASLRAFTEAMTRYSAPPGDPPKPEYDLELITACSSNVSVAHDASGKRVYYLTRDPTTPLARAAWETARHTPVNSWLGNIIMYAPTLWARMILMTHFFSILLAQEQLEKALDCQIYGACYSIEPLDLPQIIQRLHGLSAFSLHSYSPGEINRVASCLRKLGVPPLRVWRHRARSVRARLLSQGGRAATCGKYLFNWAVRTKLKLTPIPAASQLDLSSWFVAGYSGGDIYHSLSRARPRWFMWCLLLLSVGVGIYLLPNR

Regarding `CC1CCCN(S(C)(=O)=O)c2cc3oc(-c4ccc(F)cc4)c(-c4ncc[nH]4)c3cc21` (stereo not drawn) [Compound B120], the “Inhibition of HCV NS5B S3865A mutant” value in test [1] is on record as “†††”. In addition, the EC50 is at most 10 nM in test [2] (setting [5]) and below 10 nM in test [4]. Moreover, the “Inhibition of HCV N55B C316Y mutant” value in test [3] is “†††”.
`CNC(=O)c1c(-c2ccc(Oc3ccc(F)cc3)cc2)oc2cc3c(cc12)[C@H](C)CCCN3S(C)(=O)=O` (single isomer, unassigned) [Compound B85]: in test [1], the “Inhibition of HCV NS5B S3865A mutant” value is given as “†††”. Moreover, the values for the EC50 in test [2] (setting [5]) and in test [2] (setting [6]) were at most 10 nM and 3 nM, respectively. Besides, the “Inhibition of HCV N55B C316Y mutant” value in test [3] is “†††”.
As for `CC1OCCN(S(C)(=O)=O)c2cc3oc(-c4ccc(F)cc4)c(-c4ncc[nH]4)c3cc21` (stereo not drawn) [Compound B197], the EC50 is 200 to 1000 nM in test [1], at most 10 nM in test [2] (setting [5]) and below 10 nM in test [2] (setting [7]). Further, the “Inhibition of HCV N55B C316Y mutant” value in test [3] is reported as “†††”.
As to `CNC(=O)c1c(-c2ccc(F)cc2)oc2cc3c(cc12)CCCN3S(C)(=O)=O` [Compound B1], the “Inhibition of HCV NS5B S3865A mutant” value in test [1] was “††† (EC50 ≦ 200 nM)”. The EC50 in test [2] (setting [7]) fell in the range of 100 to 1000 nM. In test [3], the “Inhibition of HCV N55B C316Y mutant” value is listed as “††† (EC50 ≦ 200 nM)”.
As for `CNC(=O)c1c(-c2ccc(F)cc2)oc2cc3c(cc12)[C@H](C)OC(C)(C)CN3S(C)(=O)=O` (single isomer, unassigned) [Compound B184], the EC50 is 200 to 1000 nM in test [1], 10 to 100 nM in test [2] (setting [5]), 16.5 nM in test [2] (setting [6]) and above 1000 nM in test [3].
On to `CNC(=O)c1c(-c2ccc(F)cc2)oc2cc3c(cc12)[C@H](C)N(C)C(=O)CN3S(C)(=O)=O` (single isomer, unassigned) [Compound B179], for which the EC50 in test [1] was in the range of 200 to 1000 nM; in test [2] (setting [5]), 10 to 100 nM; in test [2] (setting [7]), 10 to 100 nM. The “Inhibition of HCV N55B C316Y mutant” value in test [3] is on record as “†††”.
As for `CNC(=O)c1c(-c2ccc(Oc3ccc(F)cc3)cc2)oc2cc3c(cc12)[C@H](C)OCCN3S(C)(=O)=O` [Compound B118], the “Inhibition of HCV NS5B S3865A mutant” value in test [1] is reported as “†††”. The EC50 is at most 10 nM in test [2] (setting [5]) and 3.1 nM in test [2] (setting [6]). For the same molecule, in test [3], the “Inhibition of HCV N55B C316Y mutant” value is recorded as “†††”.
As for `CNC(=O)c1c(-c2ccc(Oc3ccc(F)cc3)cc2)oc2cc3c(cc12)[C@H](C)OC(C)(C)CN3S(C)(=O)=O` (single isomer, unassigned) [Compound B176], the EC50 in test [1] was 200 to 1000 nM; in test [2] (setting [5]), 10 to 100 nM; in test [2] (setting [6]), 13.6 nM; in test [3], 200 to 1000 nM.
Regarding `CC1c2cc3c(-c4ncc[nH]4)c(-c4ccc(F)cc4)oc3cc2N(S(C)(=O)=O)CCN1C` (stereo not drawn) [Compound B171], the EC50 was 200 to 1000 nM in test [1], at most 10 nM in test [2] (setting [5]) and below 10 nM in test [2] (setting [7]). The “Inhibition of HCV N55B C316Y mutant” value in test [3] is reported as “†††”.
On to `CNC(=O)c1c(-c2ccc(F)cc2)oc2cc3c(cc12)[C@H](C)OC1(CC1)CN3S(C)(=O)=O` (single isomer, unassigned) [Compound B193], for which the EC50 in test [1] was 200 to 1000 nM; in test [2] (setting [5]), 10 to 100 nM; in test [2] (setting [7]), 10 to 100 nM; in test [3], 200 to 1000 nM.
`CNC(=O)c1c(-c2ccc(F)cc2)oc2cc3c(cc12)[C@H](C)NC(=O)CN3S(C)(=O)=O` (single isomer, unassigned) [Compound B208]: the “Inhibition of HCV NS5B S3865A mutant” value in test [1] is “†††”. Besides, the EC50 in test [2] (setting [5]) is at most 10 nM; in test [2] (setting [7]), below 10 nM. For the same molecule, in test [3], the “Inhibition of HCV N55B C316Y mutant” value was “†††”.
For `CNC(=O)c1c(-c2ccc(F)cc2)oc2cc3c(cc12)[C@H](C)O[C@H](CS(C)(=O)=O)CN3S(C)(=O)=O` [Compound B214], in test [1], the “Inhibition of HCV NS5B S3865A mutant” value is recorded as “†††”. In test [2] (setting [7]), the EC50 was below 10 nM. The “Inhibition of HCV N55B C316Y mutant” value in test [3] was “†††”.
With `CNC(=O)c1c(-c2ccc(F)cc2)oc2cc3c(cc12)[C@H](C)O[C@H](CO)CN3S(C)(=O)=O` [Compound B212], the “Inhibition of HCV NS5B S3865A mutant” value in test [1] is listed as “†††”. In addition, the EC50 in test [2] (setting [5]) is at most 10 nM; in test [2] (setting [7]) it was below 10 nM. Moreover, the “Inhibition of HCV N55B C316Y mutant” value in test [3] is “†††”.
Take `CNC(=O)c1c(-c2ccc(Oc3ccc(F)cc3)cc2)oc2cc3c(cc12)[C@H](C)OC1(CC1)CN3S(C)(=O)=O` (single isomer, unassigned) [Compound B187]: the EC50 was above 1000 nM in test [1], at most 10 nM in test [2] (setting [5]), below 10 nM in test [2] (setting [7]) and above 1000 nM in test [3].
Consider `CNC(=O)c1c(-c2ccc(F)cc2)oc2cc3c(cc12)[C@@H]1C[C@@H]1CCN3S(C)(=O)=O` (single isomer, unassigned) [Compound B132], for which the “Inhibition of HCV NS5B S3865A mutant” value in test [1] is on record as “†††”. The figures for the EC50 in test [2] (setting [5]) and in test [2] (setting [7]) were at most 10 nM and below 10 nM, respectively. In test [3], the “Inhibition of HCV N55B C316Y mutant” value is listed as “†††”.
As to `CNC(=O)c1c(-c2ccc(F)cc2)oc2cc3c(cc12)C(C)N(CCO)CCN3S(C)(=O)=O` (stereo not drawn) [Compound B145], the EC50 in test [1] was 200 to 1000 nM; in test [2] (setting [5]) it was at most 10 nM; in test [2] (setting [7]), below 10 nM. In addition, the “Inhibition of HCV N55B C316Y mutant” value in test [3] is given as “†††”.
Turning to `CNC(=O)c1c(-c2ccc(Oc3ccc(F)cc3)cc2)oc2cc3c(cc12)[C@H](C)n1nncc1CN3S(C)(=O)=O` (single isomer, unassigned) [Compound B163], in test [1], the “Inhibition of HCV NS5B S3865A mutant” value was “†††”. The EC50 in test [2] (setting [5]) is at most 10 nM; in test [2] (setting [7]), below 10 nM. Moreover, the “Inhibition of HCV N55B C316Y mutant” value in test [3] is reported as “†††”.
On to `CNC(=O)c1c(-c2ccc(Oc3ccc(F)cc3)cc2)oc2cc3c(cc12)[C@H](C)O[C@H](CS(C)(=O)=O)CN3S(C)(=O)=O` [Compound B207], for which the “Inhibition of HCV NS5B S3865A mutant” value in test [1] is given as “†††”. The EC50 in test [2] (setting [7]) is below 10 nM. Also, the “Inhibition of HCV N55B C316Y mutant” value in test [3] was “†††”.
